The term IC50 denotes the concentration needed to halve the response being measured.

In patent US10413535B2, “Pharmaceutical compositions comprising an integrin ALPHA4 antagonist for use in treating ocular inflammatory conditions” (AXEROVISION, INC., priority 2015, dated 2019) one finds IC50 data, which are given here for 1 compound.

The target of the assay is T1, α4β7-MAdCAM (Homo sapiens, UniProt P13612+P26010).
T1 construct: endogenous in cells; host or cells: RPMI 8866 cells (human B lymphoid cell line)
T1 sequence (P13612 34-1032): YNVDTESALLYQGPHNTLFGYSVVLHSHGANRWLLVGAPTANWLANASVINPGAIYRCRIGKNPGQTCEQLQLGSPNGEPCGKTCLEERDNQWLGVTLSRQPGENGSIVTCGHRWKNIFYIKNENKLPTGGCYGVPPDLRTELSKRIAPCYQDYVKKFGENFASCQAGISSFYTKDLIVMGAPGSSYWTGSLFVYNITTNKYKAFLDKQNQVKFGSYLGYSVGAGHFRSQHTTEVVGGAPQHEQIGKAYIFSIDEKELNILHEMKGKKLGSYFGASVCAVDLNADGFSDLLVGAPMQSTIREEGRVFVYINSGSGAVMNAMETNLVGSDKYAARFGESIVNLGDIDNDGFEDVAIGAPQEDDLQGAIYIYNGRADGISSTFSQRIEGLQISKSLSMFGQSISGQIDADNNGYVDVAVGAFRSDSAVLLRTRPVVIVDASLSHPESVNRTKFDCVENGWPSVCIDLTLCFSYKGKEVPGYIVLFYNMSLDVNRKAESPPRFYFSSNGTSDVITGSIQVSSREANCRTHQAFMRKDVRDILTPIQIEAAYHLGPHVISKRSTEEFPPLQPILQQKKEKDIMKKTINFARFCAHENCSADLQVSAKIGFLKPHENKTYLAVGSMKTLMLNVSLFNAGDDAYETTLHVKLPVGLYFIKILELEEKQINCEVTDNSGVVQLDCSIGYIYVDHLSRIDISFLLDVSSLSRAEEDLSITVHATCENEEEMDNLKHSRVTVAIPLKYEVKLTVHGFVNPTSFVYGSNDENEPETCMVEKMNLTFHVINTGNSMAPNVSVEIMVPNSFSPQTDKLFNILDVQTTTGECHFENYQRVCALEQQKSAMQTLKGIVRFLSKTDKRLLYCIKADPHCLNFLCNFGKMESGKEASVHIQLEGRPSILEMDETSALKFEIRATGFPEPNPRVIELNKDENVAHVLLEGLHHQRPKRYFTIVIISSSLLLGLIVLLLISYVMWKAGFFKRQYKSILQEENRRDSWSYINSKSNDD
T1 sequence (P26010 20-798): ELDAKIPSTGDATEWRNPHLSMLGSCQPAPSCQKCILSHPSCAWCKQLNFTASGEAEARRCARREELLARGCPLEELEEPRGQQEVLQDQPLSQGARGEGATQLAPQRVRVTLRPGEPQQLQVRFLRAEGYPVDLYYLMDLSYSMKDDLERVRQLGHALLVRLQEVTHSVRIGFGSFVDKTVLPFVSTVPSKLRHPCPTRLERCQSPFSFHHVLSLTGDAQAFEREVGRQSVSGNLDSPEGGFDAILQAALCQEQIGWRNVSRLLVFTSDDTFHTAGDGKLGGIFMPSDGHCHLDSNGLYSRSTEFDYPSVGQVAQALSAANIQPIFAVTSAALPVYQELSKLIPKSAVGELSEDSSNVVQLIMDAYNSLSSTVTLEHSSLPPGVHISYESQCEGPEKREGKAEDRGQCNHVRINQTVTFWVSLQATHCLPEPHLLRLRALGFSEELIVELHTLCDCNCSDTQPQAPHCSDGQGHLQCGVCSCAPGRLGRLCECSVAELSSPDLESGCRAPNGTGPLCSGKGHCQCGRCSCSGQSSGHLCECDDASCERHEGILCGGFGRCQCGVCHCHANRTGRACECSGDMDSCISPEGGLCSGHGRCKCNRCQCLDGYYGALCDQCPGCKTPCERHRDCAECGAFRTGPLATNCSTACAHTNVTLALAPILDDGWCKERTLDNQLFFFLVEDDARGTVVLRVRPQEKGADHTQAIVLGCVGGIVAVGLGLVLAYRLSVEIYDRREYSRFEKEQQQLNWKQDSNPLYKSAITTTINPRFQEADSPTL
Description: MAdCAM cell adhesion assay, RPMI 8866 cells. The following applies: RPMI 8866 cells to MAdCAM; read-out: Inhibition of cell adhesion (IC50). The format is cell-based. How it is done:
Jurkat J6 cells (human lymphoblast cell line) were grown as a suspension culture in RPMI 1640 supplemented with FCS (10%) and glutamine (2 mM). RPMI8866 cells (human B lymphoid cell line) were grown as a suspension culture in RPMI 1640 supplemented with FCS (10%) and glutamine (2 mM). RBL-2H3 cells (rat basophilic cell line) were cultured in Eagle's MEM plus Earles salts supplemented with 2 mM L-glutamine, 1 mM sodium pyruvate, 1× non-essential amino acids, 1 mM Na pyruvate 10% heat inactivated foetal calf serum.
Polystyrene 96-well microtitre plates were coated with IgG at a concentration of 0.05 mg/mL in bicarbonate buffer for 2.5 hours at 37° C. The solution was aspirated and the plates washed twice with PBS. The plates were then incubated overnight at 4° C. with MAdCAM at a concentration of 204.0 ng/mL in 3% BSA in PBS. Prior to use the MAdCAM was aspirated and the plates washed twice with PBS. J6 or RPMI cells (as required) were labelled with the fluorescent dye BCECF-AM (10 μM and 6×10^6 cells/mL) for 10 min at 37° C. before the excess was removed by centrifugation at 500 g for 5 min and the cells resuspended at a cell concentration of 1.2×10^7 cells/mL in HBSS. Equal volumes of HBSS containing the compound of formula I (over concentration range 38.1 pM to 10 μM) and cells were added to the MAdCAM coated plates. […] The plates were counted in a Wallac Viktor.

Structures are written as SMILES.

As for `Cc1ccccc1OCC(=O)N[C@@H](CC(C)C)C(=O)N[C@@H](Cc1ccc(OC(=O)N2CCC(C(N)=O)CC2)cc1)C(=O)O` [GW559090, (2S)-3-[4-({[4-(Aminocarbonyl)-1-piperidinyl]carbonyl}oxy)phenyl]-2-[((2S)-4-methyl-2-{[2-(2-methylphenoxy)acetyl]amino}pentanoyl)amino]propanoic acid], the IC50 was determined as 23 nM.
